Key:
BT-549 = experiment: NCI screening panel, BT-549 (Breast Cancer); assay type: cell-based, human
Procedure: (§1) Representative compounds of Formula I were screened using the National Cancer Institute (NCI) screening panel, which consists of a panel of human tumor cell lines, representing leukemia, melanoma, and cancers of the lung, colon, ovary, breast, prostate and renal system.
(§2) After 24 h, two plates of each cell line are fixed in situ with TCA, to represent a measurement of the cell population for each cell line at the time of drug addition (Tz). Experimental drugs are solubilised in dimethyl sulfoxide at 400-fold the desired final maximum test concentration and stored frozen prior to use. At the time of drug addition, an aliquot of frozen concentrate is thawed and diluted to twice the desired final maximum test concentration with complete medium containing 50 μg/mL gentamicin. Additional four, 10-fold or ½ log serial dilutions are made to provide a total of five drug concentrations plus control. Aliquots of 100 μl of these different drug dilutions are added to the appropriate microtiter wells already containing 100 μl of medium, resulting in the required final drug concentrations.
(§3) Following drug addition, the plates are incubated for an additional 48 h at 37° C., 5% CO2, 95% air, and 100% relative humidity. For adherent cells, the assay is terminated by the addition of cold TCA (trichloroacetic acid). Cells are fixed in situ by the gentle addition of 50 μl of cold 50% (w/v) TCA (final concentration, 10% TCA) and incubated for 60 minutes at 4° C. The supernatant is discarded, and the plates are washed five times with tap water and air dried. Sulforhodamine B (SRB) solution (100 μl) at 0.4% (w/v) in 1% acetic acid is added to each well, and plates are incubated for 10 minutes at room temperature. After staining, unbound dye is removed by washing five times with 1% acetic acid and the plates are air dried. Bound stain is subsequently solubilised with 10 mM trizma base, and the absorbance is read on an automated plate reader at a wavelength of 515 nm. For suspension cells, the methodology is the same except that the assay is terminated by fixing settled cells at the bottom of the wells by gently adding 50 μl of 80% TCA (final concentration, 16% TCA). Using the seven absorbance measurements [time zero, (Tz), control growth, (C), and test growth in the presence of drug at the five concentration levels (Ti)], the percentage growth is calculated at each of the drug concentrations levels. Percentage growth inhibition is calculated as: [(Ti−Tz)/(C−Tz)]×100 for concentrations for which Ti>/=Tz and [(Ti−Tz)/Tz]×100 for concentrations for which Ti<Tz.
(§4) Three dose response parameters are calculated for each experimental agent. Growth inhibition of 50% (GI50) is calculated from [(Ti−Tz)/(C−Tz)]×100=50, which is the drug concentration resulting in a 50% reduction in the net protein increase (as measured by SRB staining) in control cells during the drug incubation. The drug concentration resulting in total growth inhibition (TGI) is calculated from Ti=Tz. The LC50 (concentration of drug resulting in a 50% reduction in the measured protein at the end of the drug treatment as compared to that at the beginning) indicating a net loss of cells following treatment is calculated from [(Ti−Tz)/Tz]×100=−50. Values are calculated for each of these three parameters if the level of activity is reached. However, if the effect is not reached or is exceeded, the value for that parameter is expressed as greater or less than the maximum or minimum concentration tested.

A549/ATCC = experiment: NCI screening panel, A549/ATCC (Non-Small Cell Lung Cancer); assay type: cell-based, human
Procedure: as §1, §2, §3, §4

SNB-75 = experiment: NCI screening panel, SNB-75 (CNS Cancer); assay type: cell-based, human
Procedure: as §1, §2, §3, §4

MM.1S tumor cells = experiment: Inhibition of tumor growth in myeloma MM.1S mouse xenograft model; assay type: in vivo; settings: MM.1S xenograft mice
Procedure: The mice were irradiated (200 rads) using a Co60 irradiator source. After 24 hrs, each mouse was inoculated subcutaneously with 5×10^6 MM.1S tumor cells in 0.1 mL PBS for tumor development. Treatments were started when the tumor volume reached 100 mm^3. Each treatment group consisted of 10 mice. The test articles of compounds of Formula I were administrated to the tumor-bearing mice according to a specific predetermined regimen.

K-562 = experiment: NCI screening panel, K-562 (Leukemia); assay type: cell-based, human
Procedure: as §1, §2, §3, §4

HOP-92 = experiment: NCI screening panel, HOP-92 (Non-Small Cell Lung Cancer); assay type: cell-based, human
Procedure: as §1, §2, §3, §4

CCRF-CEM = experiment: NCI screening panel, CCRF-CEM (Leukemia); assay type: cell-based, human
Procedure: as §1, §2, §3, §4

Structure (SMILES)	Log10GI50 (BT-549)	Log10LC50 (BT-549)	Log10TGI50 (BT-549)	Log10GI50 (A549/ATCC)	Log10LC50 (A549/ATCC)	Log10TGI50 (A549/ATCC)	Log10GI50 (SNB-75)	Log10LC50 (SNB-75)	Log10TGI50 (SNB-75)	gross adverse effects including reductions in body weight or alterations in behaviour (MM.1S tumor cells; 4 mg/kg i.v, days 1, 3, 5/wk×28 days)	gross adverse effects including reductions in body weight or alterations in behaviour (MM.1S tumor cells; 8 mg/kg i.v, days 1, 2/wk×4 wks)	Log10GI50 (K-562)	Log10LC50 (K-562)	Log10TGI50 (K-562)	Log10GI50 (HOP-92)	Log10LC50 (HOP-92)	Log10TGI50 (HOP-92)	Log10GI50 (CCRF-CEM)	Log10LC50 (CCRF-CEM)	Log10TGI50 (CCRF-CEM)
CC(C)C[C@H](NC(=O)[C@H](COC(F)F)NC(=O)CN1CCOCC1)C(=O)N[C@@H](COC(F)F)C(=O)N[C@@H](CC(C)C)C(=O)[C@@]1(C)CO1 [Example 1, (2S)—N-[(1S)-1-(difluoromethoxymethyl)-2-[[(1S)-3-methyl-1-[(2R)-2-methyloxirane-2-carbonyl]butyl]amino]-2-oxo-ethyl]-2-[[(2S)-3-(difluoromethoxy)-2-[(2-morpholinoacetyl)amino]propanoyl]amino]-4-methyl-pentanamide]	−7.85	−6.61	−7.40	−7.46	>−4.00	−5.49	−7.66	−5.88	−7.29	no gross adverse effects	no gross adverse effects	−7.38	>−4.00	>−4.00	−7.74	−6.50	−7.30			
CC(C)C[C@H](NC(=O)[C@H](COC(F)F)NC(=O)CN1CCOCC1)C(=O)N[C@@H](Cc1ccccc1)C(=O)N[C@@H](CC(C)C)C(=O)[C@@]1(C)CO1 [Example 2, (2S)-N-[(1S)-1-benzyl-2-[[(1S)-3-methyl-1-[(2R)-2-methyloxirane-2-carbonyl]butyl]-amino]-2-oxo-ethyl]-2-[[(2S)-3-(difluoromethoxy)-2-[(2-morpholinoacetyl)amino]propanoyl]amino]-4-methyl-pentanamide]	<−8.00	−6.84	−7.48	−7.52	>−4.00	−5.93	−7.75	−5.91	−7.30			−7.49	>−4.00	>−4.00						
CC(C)C[C@H](NC(=O)[C@H](COC(F)F)NC(=O)CN1CCOCC1)C(=O)N[C@@H](Cc1ccccc1)C(=O)N[C@@H](Cc1ccccc1)C(=O)[C@@]1(C)CO1 [Example 3, (2S)-N-[(1S)-1-benzyl-2-[[(1S)-1-benzyl-2-[(2R)-2-methyloxiran-2-yl]-2-oxo-ethyl]amino]-2-oxo-ethyl]-2-[[(2S)-3-(difluoromethoxy)-2-[(2-morpholinoacetyl)-amino]propanoyl]amino]-4-methyl-pentan-amide]	<−8.00	−4.21	−7.32	−7.65	>−4.00	>−4.00	−7.66	−4.61	−7.11			−7.77	>−4.00	>−4.00				<−8.00	>−4.00	−4.88
CC(C)C[C@H](NC(=O)[C@H](COC(F)F)NC(=O)CN1CCOCC1)C(=O)N[C@@H](COC(F)F)C(=O)N[C@@H](Cc1ccccc1)C(=O)[C@@]1(C)CO1 [Example 4, (2S)-N-[(1S)-2-[[(1S)-1-benzyl-2-[(2R)-2-methyloxiran-2-yl]-2-oxo-ethyl]amino]-1-(difluoromethoxymethyl)-2-oxo-ethyl]-2-[[(2S)-3-(difluoromethoxy)-2-[(2-mor-pholinoacetyl)amino]propanoyl]amino]-4 methyl-pentanamide]	−7.64		−6.91	−7.38	>−4.00	−4.55	−7.70	−6.25	−7.25			−7.26	>−4.00	>−4.00	−7.59	−6.24	−7.15	<−8.00	>−4.00	>−4.00
CC(C)C[C@H](NC(=O)[C@H](COC(F)F)NC(=O)[C@H](COC(F)F)NC(=O)[C@H](CCc1ccccc1)NC(=O)CN1CCOCC1)C(=O)[C@@]1(C)CO1 [Example 7, (2S)-N-[(1S)-1-(difluoromethoxymethyl)-2-[[(1S)-1-(difluoromethoxymethyl)-2-[[(1S)-3-methyl-1-[(2R)-2-methyloxirane-2-carbo-nyl]butyl]amino]-2-oxo-ethyl]amino]-2-oxo-ethyl]-2-[(2-morpholinoacetyl)amino]-4-phenyl-butanamide]	−7.68	>−4.00	−7.07	−7.43	>−4.00	>−4.00	−7.65	−4.01	−7.16			−7.37	>−4.00	>−4.00	−7.71	−6.54	−7.28	<−8.00	>−4.00	>−4.00
CC(C)C[C@H](NC(=O)[C@H](Cc1ccccc1)NC(=O)[C@H](COC(F)F)NC(=O)[C@H](COC(F)F)NC(=O)CN1CCOCC1)C(=O)[C@@]1(C)CO1 [Example 11, (2S)-2-[[(2S)-3-(difluoromethoxy)-2-[[(2S)-3-(difluoromethoxy)-2-[(2-morpholinoacetyl)-amino]propanoyl]amino]propanoyl]amino]-N-[(1S)-3-methyl-1-[(2R)-2-methyloxirane-2-carbonyl]butyl]-3-phenyl-propanamide]	−7.76	>−4.00	−7.06	−7.40		>−4.00	−7.62	>−4.00	−7.15			−7.36	>−4.00	>−4.00	−7.62	−6.26	−7.15	<−8.00	>−4.00	−4.57
CC(C)C[C@H](NC(=O)[C@H](COC(F)F)NC(=O)[C@H](COC(F)F)NC(=O)[C@H](COC(F)F)NC(=O)CN1CCOCC1)C(=O)[C@@]1(C)CO1 [Example 17, (2S)-3-(difluoromethoxy)-N-[(1S)-1-(difluoromethoxymethyl)-2-[[(1S)-1-(difluoro-methoxymethyl)-2-[[(1S)-3-methyl-1-[(2R)-2-methyloxirane-2-carbonyl]butyl]amino]-2-oxo-ethyl]amino]-2-oxo-ethyl]-2-[(2-mor-pholinoacetyl)amino]-propanamide]	−7.11	>−4.00	−6.43	−6.99	>−4.00	−5.06	−7.15	>−4.00	−6.39			−6.77		>−4.00	−7.56	−6.02	−7.01	−7.39	>−4.00	>−4.00

From patent US20150218212A1, “FLUORINATED EPOXYKETONE-BASED TETRAPEPTIDE COMPOUNDS AND USES THEREOF AS PROTEASOME INHIBITORS” (FLUORINOV PHARMA INC., priority 2012, published 2015)
